Results: US9040502B2, “Anti-XDR-TB drug, anti-MDR-TB drug, and combination anti-tuberculosis drug” (priority 2008, dated 2015)

Test system: Mycobacterium tuberculosis XDR-TB (0306-0206)
Type: cell-based
Conditions: ratio method, concentrations as in Table 1

Compound	Resistance or sensitivity of M. tuberculosis XDR-TB (0306-0206) to the drug
N[C@@H]1CON=C1O [CS, cycloserine]	sensitive
CC[C@@H](CO)NCCN[C@@H](CC)CO [EB, ethambutol]	resistant
NNC(=O)c1ccncc1 [INH, isonicotinic acid hydrazide]	resistant
Nc1ccc(C(=O)O)c(O)c1 [PAS, para-amino-salicylic acid]	resistant
[H]/N=C(/N)N[C@H]1[C@H](O)[C@@H](O)[C@H](O[C@@H]2O[C@@H](C)[C@](O)(C=O)[C@H]2O[C@@H]2O[C@@H](CO)[C@H](O)[C@@H](O)[C@@H]2NC)[C@@H](N/C(N)=N\[H])[C@@H]1O [SM, streptomycin]	resistant
CCc1cc(C(N)=S)ccn1 [TH, ethionamide]	resistant
enviomycin [EVM]	resistant
